Measured values reported in ChEMBL document CHEMBL1201862, “PubChem BioAssay data set” (2004).
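Compound exposure: 48 hours, 5 concentrations, 96-well plates. GI50: concentration for 50% inhibition of growth.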 Calls of active or inactive are those of the source. Rule as the data show it: active = GI50 up to about 1.1 µM and inactive = higher.

How the values were obtained:
Test in all cases: NCI-60 cell line screen, 48 h
BT-549 = test system: BT-549
HOP-18 = test system: HOP-18
SNB-78 = test system: SNB-78
M19-MEL = test system: M19-MEL
KM-20L2 = test system: KM-20L2
DMS-273 = test system: DMS-273
RXF 631 = test system: RXF 631
XF498 = test system: XF498
DMS-114 = test system: DMS-114

| Structure (SMILES) | GI50 (BT-549) | GI50 (HOP-18) | GI50 (SNB-78) | GI50 (M19-MEL) | GI50 (KM-20L2) | GI50 (DMS-273) | GI50 (RXF 631) | GI50 (XF498) | GI50 (DMS-114) |
| --- | --- | --- | --- | --- | --- | --- | --- | --- | --- |
| N#CC1(C#N)C(c2ccccc2)NC23CCCCC2C1(C#N)C(=O)N3 (centres undefined) | > 100 µM (inactive) |  |  |  |  |  |  |  |  |
| C=C=C(Sc1ccccc1)C(C)(C)OC(C)=O |  | 20 µM (inactive) | 29.8 µM (inactive) | 15.8 µM (inactive) | 26.3 µM (inactive) |  |  |  |  |
| CC(C)(C)C(=O)N1C(C(=O)O)Cc2ccccc2[C@@H]1Cc1ccccc1 (some centres undefined) |  | > 100 µM (inactive) | > 100 µM (inactive) | > 100 µM (inactive) | > 100 µM (inactive) | > 100 µM (inactive) | > 100 µM (inactive) | > 100 µM (inactive) | > 100 µM (inactive) |
| O=C(O)C(SC(=S)c1ccc(C(=S)SC(C(=O)O)c2ccccc2)cc1)c1ccccc1 (centres undefined) |  |  | > 100 µM (inactive) |  |  | 47.2 µM (inactive) | > 100 µM (inactive) | > 100 µM (inactive) | 35 µM (inactive) |
| C/C(C[n+]1ccccc1)=N\N=C(N)N | > 100 µM (inactive) |  |  |  |  |  |  |  |  |
| Cc1c2ccncc2c(C)c2c1[nH]c1ccc(OCCN(C)C)cc12 |  | 0.598 µM (active) | 1.13 µM (inactive) | 0.582 µM (active) | 0.113 µM (active) | 0.0998 µM (active) |  | 0.807 µM (active) |  |
| O=C(O)C1CC2C=CCC(C2)C1 (centres undefined) |  | > 100 µM (inactive) | > 100 µM (inactive) | > 100 µM (inactive) | > 100 µM (inactive) | > 100 µM (inactive) |  | > 100 µM (inactive) | > 100 µM (inactive) |
| Nc1ccc(S(=O)(=O)c2ccc(NCN3C(=O)NC(=O)C(=O)C3=O)cc2)cc1 [ALLANTODAPSONE] | > 100 µM (inactive) |  |  |  |  |  |  |  |  |
| O=C1CCCC1C(O)(C(F)(F)Cl)C(F)(F)Cl (centres undefined) | > 10 µM (inactive) |  |  |  |  |  |  |  |  |
| C[N+](C)(C)CC1CCC(C[N+](C)(C)C)C1=NO (centres undefined) |  | > 100 µM (inactive) | > 100 µM (inactive) | > 100 µM (inactive) | > 100 µM (inactive) |  |  | > 100 µM (inactive) |  |
| CC(=O)c1ccc(NC(=O)/C(CC(=O)/C=C/c2ccccc2)=N/NC(N)=S)cc1 | > 100 µM (inactive) |  |  |  |  |  |  |  |  |
| O=C(/C=C/c1ccccc1)Oc1ccc(C(=O)/C=C/c2ccccc2)cc1 | 6.49 µM (inactive) |  |  |  |  |  |  |  |  |
| C[Si](C)(N[Si](C)(C)OCCc1ccccc1)OCCc1ccccc1 | > 100 µM (inactive) |  |  |  |  |  |  |  |  |
| CC(C)OP(=O)(OC(C)C)/C(F)=N/Nc1ccc([N+](=O)[O-])cc1 |  |  |  | > 100 µM (inactive) | > 100 µM (inactive) | > 100 µM (inactive) |  | > 100 µM (inactive) | > 100 µM (inactive) |
| C1CCCCc2nc3c(nc2CCC1)c1nc2c(nc1c1nc4c(nc31)CCCCCCCC4)CCCCCCCC2 |  | > 100 µM (inactive) | > 100 µM (inactive) |  | > 100 µM (inactive) |  | > 100 µM (inactive) |  |  |
| COC1(O)c2cccc(Cl)c2C(=O)N1C1(C(N)=O)CCCCC1 (centres undefined) |  | > 100 µM (inactive) | > 100 µM (inactive) | > 100 µM (inactive) | > 100 µM (inactive) | > 100 µM (inactive) |  | > 100 µM (inactive) | > 100 µM (inactive) |
| CCN(CC)c1c(C(=O)/C=C/c2ccc(Cl)cc2)c(-c2ccccc2)nn(C)c1=O |  | 2.09 µM (inactive) | 2.61 µM (inactive) | 1.69 µM (inactive) | 2.47 µM (inactive) | 1.71 µM (inactive) | 2.14 µM (inactive) |  | 1.97 µM (inactive) |
| C1=CCN(c2ccccc2)CC1 |  | 63.5 µM (inactive) | 29.8 µM (inactive) |  | 55.6 µM (inactive) | > 100 µM (inactive) | > 100 µM (inactive) | 17.1 µM (inactive) | 32.4 µM (inactive) |
| O=C(O)/C(O)=C1/C=C(c2ccccc2)c2ccccc21 |  | 22 µM (inactive) | 31.4 µM (inactive) | 22.2 µM (inactive) | 33.7 µM (inactive) | 18.6 µM (inactive) | 28.6 µM (inactive) |  | 18.7 µM (inactive) |
| Cc1cc(C)c2c(O)cc(-c3cccc4ccccc34)nc2n1 | 3.3 µM (inactive) |  |  |  |  |  |  |  |  |
| N#Cc1c(N2CCCC2)ncn(-c2ccccc2)c1=S | > 100 µM (inactive) |  |  |  |  |  |  |  |  |
| COC(=O)/C=C1/N=C(N(C)/N=C/c2ccccc2)NC1=O | > 100 µM (inactive) |  |  |  |  |  |  |  |  |

| Structure (SMILES) | GI50 (BT-549) | GI50 (HOP-18) | GI50 (SNB-78) | GI50 (M19-MEL) | GI50 (KM-20L2) | GI50 (DMS-273) | GI50 (RXF 631) | GI50 (XF498) | GI50 (DMS-114) |
| --- | --- | --- | --- | --- | --- | --- | --- | --- | --- |
| COc1oc(C2C/C(=C/C(C)=C/C(C)=C/C(C)=C/c3ccc([N+](=O)[O-])cc3)CO2)c(C)c(=O)c1C (centres undefined) | 2.73 µM (inactive) |  |  |  |  |  |  |  |  |
| CC(C)=CCC/C(C)=C/CC/C(C)=C/C(O)c1ccccc1 (centres undefined) |  |  | 22.6 µM (inactive) | 18.3 µM (inactive) | 21.3 µM (inactive) |  | 18 µM (inactive) |  | 18.3 µM (inactive) |
| CCOC(=O)c1c(Cl)nc2ccccc2c1N=[N+]=[N-] | 16.4 µM (inactive) |  |  |  |  |  |  |  |  |
| Cc1ccc(N/N=C2\C3=C(CCC(C)(C)O3)C(=O)c3ccccc32)cc1 | 26.1 µM (inactive) |  |  |  |  |  |  |  |  |
| O=C1CC(=O)NC(NN2C(=O)/C(=C/c3ccc(Cl)c(Cl)c3)N=C2c2ccccc2)=N1 | 20.7 µM (inactive) |  |  |  |  |  |  |  |  |
| O=C(C1=C(C(=O)c2ccccc2)SC2(S1)C(C(=O)c1ccccc1)=C(C(=O)c1ccccc1)Sc1c2ssc1=O)c1ccccc1 | 80.4 µM (inactive) |  |  |  |  |  |  |  |  |
| CCCCCCCCCCNCCSSCc1ccc(Cl)cc1 |  | > 10 µM (inactive) |  | 1.22 µM (inactive) | 1.36 µM (inactive) | 1.4 µM (inactive) | 1.69 µM (inactive) | 2.8 µM (inactive) | 1.57 µM (inactive) |
| CC1SC2=NC3=C(c4ccccc4C3=O)C(c3ccccc3Cl)N2C1=O (centres undefined) |  |  |  | > 100 µM (inactive) | > 100 µM (inactive) | > 100 µM (inactive) | > 100 µM (inactive) | > 100 µM (inactive) | > 100 µM (inactive) |
| CN1C(=O)N(C)C2(CCN(CC(CC3OCCO3)c3ccc(F)cc3)CC2)C1=O (centres undefined) | > 100 µM (inactive) |  |  |  |  |  |  |  |  |
| COc1cc(C(=O)CC2OC(=O)C(Cl)=C2Cl)ccc1Cl (centres undefined) |  | > 100 µM (inactive) | > 100 µM (inactive) | > 100 µM (inactive) | > 100 µM (inactive) | > 100 µM (inactive) | > 100 µM (inactive) | > 100 µM (inactive) | > 100 µM (inactive) |
| O=C(CCc1ccc(O)cc1)NCCc1cccc(O)c1 | > 50 µM (inactive) |  |  |  |  |  |  |  |  |
| O=C(O)C(CSC(c1ccccc1)(c1ccccc1)c1ccccc1)/N=C/c1cccs1 (centres undefined) | 4.97 µM (inactive) |  |  |  |  |  |  |  |  |
| COC1=CC(=O)OC(/C=C(C)/C=C/C2=C(C)CCCC2(C)C)C1 (centres undefined) |  |  | > 100 µM (inactive) | > 100 µM (inactive) | 36 µM (inactive) | > 100 µM (inactive) |  |  | > 100 µM (inactive) |
| c1ccc(COc2cccc3ccc[n+](Cc4ccccc4)c23)cc1 |  | 2.07 µM (inactive) |  | 3.59 µM (inactive) | 4.12 µM (inactive) | 3.8 µM (inactive) | 18.9 µM (inactive) | 11.2 µM (inactive) | 2.99 µM (inactive) |
| COc1ccc(-c2cc(N3CCN(c4ccccc4)CC3)c(C#N)c(=O)o2)cc1 |  | 4.88 µM (inactive) | 22.6 µM (inactive) |  | > 100 µM (inactive) | 40 µM (inactive) | 21.5 µM (inactive) | 6.59 µM (inactive) | 22.1 µM (inactive) |
| N#CC(C#N)=C1CCC2C(=C(C#N)C#N)CCC12 (centres undefined) |  |  | > 100 µM (inactive) | > 100 µM (inactive) | > 100 µM (inactive) | > 100 µM (inactive) | > 100 µM (inactive) | > 100 µM (inactive) | > 100 µM (inactive) |
| COc1ccc(C[C@H]2COC(=O)[C@@H]2Cc2cccc(Br)c2)cc1OC | 13.9 µM (inactive) |  |  |  |  |  |  |  |  |
| Nc1nc(NC2C=C(CO)C(O)C2O)c([N+](=O)[O-])c(=O)[nH]1 (centres undefined) |  | > 100 µM (inactive) | > 100 µM (inactive) | > 100 µM (inactive) | > 100 µM (inactive) | > 100 µM (inactive) |  | > 100 µM (inactive) | > 100 µM (inactive) |
| NS(=O)(=O)c1ccc(/N=N/c2ccc(O)c(C(=O)O)c2)cc1 [SALAZOSULFAMIDE] | > 100 µM (inactive) |  |  |  |  |  |  |  |  |
| CCc1ccc2nc(-c3ccc(O)cc3)sc2c1 | 16.3 µM (inactive) |  |  |  |  |  |  |  |  |
| CSc1nc2c(nc(N)n2C2OCC(O)C(O)C2O)c(=O)[nH]1 (centres undefined) |  | > 100 µM (inactive) | > 100 µM (inactive) | > 100 µM (inactive) | > 100 µM (inactive) |  | > 100 µM (inactive) | > 100 µM (inactive) | > 100 µM (inactive) |
